Source: patent US20110275559A1, “Long-Acting Y2 and/or Y4 Receptor Agonists” (Novo Nordisk A/S, priority 2008, published 2011)
Read-outs that look alike come from different tables or passages of the source. Marks after values point to notes of the source that are not given here. *1 amine or outer side, *2 acyl side, *3 side chain or, on linkers, in order; H or OH if unused. Where a SMILES comes first, the peptide text is derived from it. Where no end group is shown, it is not given here. Side-chain parts run from the residue outwards. The star is where a group is joined. C20 diacid = O=C(O)CCCCCCCCCCCCCCCCCCC(=O)*; C18 diacid = O=C(O)CCCCCCCCCCCCCCCCC(=O)*; γGlu = O=C(O)[C@H](CCC(=O)[*:2])N[*:1]; Trx = NC[C@H]1CC[C@H](C(=O)O)CC1; AEEA = NCCOCCOCC(=O)O

Assays:
lean C57BL/6 mice = test: Acute food intake in fasted lean mice (BioDAQ, fasting-induced refeeding); assay type: in vivo; conditions: for Mean cumulative food intake / Mean cumulative food intake [g]: Table 5, Study 6A
Experimental: Acute food intake in mice: Lean C57BL male mice are obtained from Charles River, Japan. They are maintained on a 12:12 light:dark cycle (lights off at 10:00 AM, lights on at 10:00 PM), fed pelleted D12450B rodent diet (Research Diets, Inc., New Brunswick, N.J.), and allowed water ad libitum. The mice arrive at 7-8 weeks of age and are acclimatized in the BioDAQ system a minimum of two weeks prior to study. On the day of study, mice are 9-12 weeks old. They are fasted overnight (20-24 h) with free access to water. The day of the study, mice are dosed with s.c. injection (dose volume=10 mL/kg), returned to their cage, and pre-weighed food is immediately placed in the cage. […] When the mice eat the weight reduction of the content of the food-tray is registered. Data is registered each time there is a change in the weight of the individual food-tray. Cumulative food intake is calculated by subtracting the food weight at each time point from the starting food weight.
Mice were administrated a single dose of the peptides (1 μmol/kg s.c.) 30 min before food return and cumulative food intake was measured over 24 h. […] One way ANOVA was carried for each time point out using the software Graph-Pad Prism, version 5.0. The statistical method used for the data in FIG. 1A was an unpaired t-test using the software Graph-Pad Prism, version 5.0. The statistical method used for the data in FIG. 1B and Table 4 was ANOVA, Dunnetts post hoc. Stars in FIGS. 1A and 1B indicate significance versus the vehicle group *) p<0.05, **) p<0.01, ***) p<0.001.
Fasted lean C57BL/6 mice were administrated a single subcutaneous injection of vehicle or peptide approximately 30 min before food return and the cumulative food intake was measured subsequently. One way ANOVA was carried out for each time point using the software Graph-Pad Prism, version 5.0.

in vivo = conditions: Göttingen, minipig, iv
Method in brief: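 Catheterised mini-pigs received compound i.v. at 10 nmol/kg in pH 4.0 phosphate/NaCl/tween vehicle, or alternatively i.v. or s.c. at 1–30 nmol/kg in pH 8.0 K2HPO4/tween. Stabilised plasma was sampled up to 13 days and assayed by LC-MS (LLOQ 2 nM). Half-life came from non-compartmental analysis of individual animal profiles.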

[1] = Adrian T. E. et al, Gut (1978), 19, pp 907-909; cited from earlier work
Y2 receptor [2] = target: T1, Y2 receptor (Homo sapiens, UniProt P49146); test: Y2 receptor ACTOne based FLIPR assay (cAMP biosensor); assay type: cell-based
T1 construct: host or cells: ACTOne HEK-293 cells
T1 sequence (P49146 1-381): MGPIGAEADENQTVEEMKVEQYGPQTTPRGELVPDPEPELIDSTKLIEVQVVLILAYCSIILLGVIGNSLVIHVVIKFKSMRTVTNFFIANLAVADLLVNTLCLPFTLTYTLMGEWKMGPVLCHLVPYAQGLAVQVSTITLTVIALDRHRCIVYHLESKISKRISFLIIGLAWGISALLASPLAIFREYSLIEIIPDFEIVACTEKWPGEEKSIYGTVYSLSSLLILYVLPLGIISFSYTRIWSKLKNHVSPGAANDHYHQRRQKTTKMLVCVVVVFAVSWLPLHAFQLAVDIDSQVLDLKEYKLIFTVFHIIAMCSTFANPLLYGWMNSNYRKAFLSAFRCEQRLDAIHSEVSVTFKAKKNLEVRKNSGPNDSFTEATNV

Y4 receptor = target: T2, Y4 receptor (Homo sapiens, UniProt P50391); test: Y4 receptor ACTOne based FLIPR assay (cAMP biosensor); assay type: cell-based
T2 construct: host or cells: ACTOne HEK-293 cells

Y2 receptor [3] = target: T3, Y2 receptor (UniProt P49146 1-381, limits assumed); test: cell-based or functional assay
T3 sequence (looked up): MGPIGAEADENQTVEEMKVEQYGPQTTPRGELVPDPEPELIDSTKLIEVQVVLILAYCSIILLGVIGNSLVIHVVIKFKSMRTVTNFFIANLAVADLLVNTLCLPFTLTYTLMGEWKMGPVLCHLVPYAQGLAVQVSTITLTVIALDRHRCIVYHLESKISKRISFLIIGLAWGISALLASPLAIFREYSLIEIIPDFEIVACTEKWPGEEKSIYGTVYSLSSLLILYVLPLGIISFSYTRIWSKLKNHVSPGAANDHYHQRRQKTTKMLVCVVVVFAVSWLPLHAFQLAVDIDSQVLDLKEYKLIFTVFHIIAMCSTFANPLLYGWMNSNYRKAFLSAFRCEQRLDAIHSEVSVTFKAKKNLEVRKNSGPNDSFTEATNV

[4] = Table 2, PP analogues, ACTOne HEK-293 cells, read-out: Y2 cAMP EC50
[5] = Table 2, PP analogues, ACTOne HEK-293 cells, read-out: Y4 cAMP EC50

T2 sequence (P50391 whole entry): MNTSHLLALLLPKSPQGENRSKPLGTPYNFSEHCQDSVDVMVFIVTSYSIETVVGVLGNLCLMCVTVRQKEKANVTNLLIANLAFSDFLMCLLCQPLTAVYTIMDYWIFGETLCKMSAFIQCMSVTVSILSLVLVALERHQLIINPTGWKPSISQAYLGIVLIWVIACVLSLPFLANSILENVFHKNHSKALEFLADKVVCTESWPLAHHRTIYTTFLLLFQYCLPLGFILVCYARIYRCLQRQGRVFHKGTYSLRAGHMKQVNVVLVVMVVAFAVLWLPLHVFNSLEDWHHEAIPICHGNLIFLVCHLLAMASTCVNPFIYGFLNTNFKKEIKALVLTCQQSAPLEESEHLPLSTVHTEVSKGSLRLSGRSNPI

CC[C@H](C)[C@H](NC(=O)[C@H](Cc1ccc(O)cc1)NC(=O)[C@H](CCCNC(=N)N)NC(=O)[C@H](CCCNC(=N)N)NC(=O)[C@H](CC(C)C)NC(=O)[C@H](CC(=O)O)NC(=O)[C@H](C)NC(=O)[C@H](C)NC(=O)[C@H](Cc1ccc(O)cc1)NC(=O)[C@H](CCC(N)=O)NC(=O)[C@H](C)NC(=O)[C@H](CCSC)NC(=O)[C@H](CCC(N)=O)NC(=O)[C@H](CCC(=O)O)NC(=O)[C@@H]1CCCN1C(=O)[C@@H](NC(=O)[C@H](C)NC(=O)[C@H](CC(N)=O)NC(=O)[C@H](CC(=O)O)NC(=O)CNC(=O)[C@@H]1CCCN1C(=O)[C@H](Cc1ccc(O)cc1)NC(=O)[C@@H](NC(=O)[C@@H]1CCCN1C(=O)[C@H](CCC(=O)O)NC(=O)[C@H](CC(C)C)NC(=O)[C@@H]1CCCN1C(=O)[C@H](C)N)C(C)C)[C@@H](C)O)C(=O)N[C@@H](CC(N)=O)C(=O)N[C@@H](CCSC)C(=O)N[C@@H](CC(C)C)C(=O)N[C@H](C(=O)N[C@@H](CCCNC(=N)N)C(=O)N1CCC[C@H]1C(=O)N[C@@H](CCCNC(=N)N)C(=O)N[C@@H](Cc1ccc(O)cc1)C(N)=O)[C@@H](C)O [SEQ ID NO: 2, hPP(1-36)]
time after administration at which the effect in reducing food intake has disappeared (lean C57BL/6 mice; Study 6A, fasted lean C57BL/6 mice, 1.0 μmol/kg s.c.): 12 h
Mean cumulative food intake (lean C57BL/6 mice; fasted lean C57BL/6 mice, single 1.0 μmol/kg s.c., 4 hours after injection, vehicle 1.51): 1.18 g
Mean cumulative food intake [g] (lean C57BL/6 mice; mice, 1.0 μmol/kg s.c., 6 hours after injection, vehicle 2.04): 1.51** g
Mean cumulative food intake [g] (lean C57BL/6 mice; mice, 1.0 μmol/kg s.c., 8 hours after injection, vehicle 2.61): 1.98** g
Mean cumulative food intake (lean C57BL/6 mice; mice, 1.0 μmol/kg s.c., 12 hours after injection, vehicle 3.49): 3.19 g
Mean cumulative food intake (lean C57BL/6 mice; mice, 1.0 μmol/kg s.c., 24 hours after injection, vehicle 4.35): 3.87 g
Mean cumulative food intake (lean C57BL/6 mice; mice, 1.0 μmol/kg s.c., 36 hours after injection, vehicle 8.41): 7.93 g
Mean cumulative food intake (lean C57BL/6 mice; mice, 1.0 μmol/kg s.c., 48 hours after injection, vehicle 8.87): 8.56 g
half-life (in vivo; 15 nmol/kg): 0.035 h
half-life (in vivo; 45 nmol/kg): 0.031 h
half-life reported in man [1]: 7 min

CC[C@H](C)[C@H](NC(=O)[C@H](Cc1ccc(O)cc1)NC(=O)[C@H](CCCNC(=N)N)NC(=O)[C@H](CCCCNC(=O)COCCOCCNC(=O)COCCOCCNC(=O)CC[C@H](NC(=O)[C@H]1CC[C@H](CNC(=O)CCCCCCCCCCCCCCCCCCC(=O)O)CC1)C(=O)O)NC(=O)[C@H](CC(C)C)NC(=O)[C@H](CC(=O)O)NC(=O)[C@H](C)NC(=O)[C@H](C)NC(=O)[C@H](Cc1ccc(O)cc1)NC(=O)[C@H](CCC(N)=O)NC(=O)[C@H](C)NC(=O)[C@H](CC(C)C)NC(=O)[C@H](CCC(N)=O)NC(=O)[C@H](CCC(=O)O)NC(=O)[C@@H]1CCCN1C(=O)[C@@H](NC(=O)[C@H](C)NC(=O)[C@H](CC(N)=O)NC(=O)[C@H](CC(=O)O)NC(=O)CNC(=O)[C@@H]1CCCN1C(=O)[C@H](Cc1ccc(O)cc1)NC(=O)[C@@H](NC(=O)[C@@H]1CCCN1C(=O)[C@H](CCC(=O)O)NC(=O)[C@H](CC(C)C)NC(=O)[C@@H]1CCCN1)C(C)C)[C@@H](C)O)C(=O)N[C@@H](CC(N)=O)C(=O)N[C@@H](CC(C)C)C(=O)N[C@@H](CC(C)C)C(=O)N[C@H](C(=O)N[C@@H](CCCNC(=N)N)C(=O)N1CCC[C@H]1C(=O)N[C@@H](CCCNC(=N)N)C(=O)N[C@@H](Cc1ccc(O)cc1)C(N)=O)[C@@H](C)O [SEQ ID NO: 50, N-epsilon25-[2-(2-{2-[2-(2-{2-[(S)-4-Carboxy-4-({trans-4-[(19-carboxynonadecanoylamino)methyl]cyclohexanecarbonyl}amino)butyrylamino]-ethoxy}ethoxy)acetylamino]ethoxy}ethoxy)acetyl][Leu17,Lys25,Leu30]hPP2-36] (H-PLEPVYPGDNATPEQLAQYAADLK([AEEA-AEEA-γGlu-Trx-C20 diacid])RYINLLTRPRY-NH2)
EC50 (Y2 receptor [2]; [4]): > 1000 nM
EC50 (Y4 receptor; [5]): > 1000 nM
half-life (in vivo; 10 nmol/kg): 82 h

CC[C@H](C)[C@H](NC(=O)[C@H](Cc1ccc(O)cc1)NC(=O)[C@H](CCCNC(=N)N)NC(=O)[C@H](CCCNC(=N)N)NC(=O)[C@H](CC(C)C)NC(=O)[C@H](CC(=O)O)NC(=O)[C@H](C)NC(=O)[C@H](C)NC(=O)[C@H](Cc1ccc(O)cc1)NC(=O)[C@H](CCC(N)=O)NC(=O)[C@H](C)NC(=O)[C@H](CC(C)C)NC(=O)[C@H](CCC(N)=O)NC(=O)[C@H](CCC(=O)O)NC(=O)[C@@H]1CCCN1C(=O)[C@@H](NC(=O)[C@H](C)NC(=O)[C@H](CC(N)=O)NC(=O)[C@H](CC(=O)O)NC(=O)CNC(=O)[C@@H]1CCCN1C(=O)[C@H](Cc1ccc(O)cc1)NC(=O)[C@@H](NC(=O)[C@@H]1CCCN1C(=O)[C@H](CCC(=O)O)NC(=O)[C@H](CC(C)C)NC(=O)[C@@H]1CCCN1C(=O)COCCOCCNC(=O)COCCOCCNC(=O)CC[C@H](NC(=O)CCCCCCCCCCCCCCCCC(=O)O)C(=O)O)C(C)C)[C@@H](C)O)C(=O)N[C@@H](CC(N)=O)C(=O)N[C@@H](CC(C)C)C(=O)N[C@@H](CC(C)C)C(=O)N[C@H](C(=O)N[C@@H](CCCNC(=N)N)C(=O)N1CCC[C@H]1C(=O)N[C@@H](CCCNC(=N)N)C(=O)N[C@@H](Cc1ccc(O)cc1)C(N)=O)[C@@H](C)O [SEQ ID NO: 55, N-alfa-[2-(2-{2-[2-(2-{2-[(S)-4-Carboxy-4-(17-carboxyheptadecanoylamino)butyrylamino]ethoxy}ethoxy)acetylamino]-ethoxy}ethoxy)acetyl][Leu17,Leu30]hPP2-36] ({C18 diacid-γGlu-AEEA-AEEA}-PLEPVYPGDNATPEQLAQYAADLRRYINLLTRPRY-NH2; C-terminus assumed)
EC50 (Y2 receptor [2]; [4]): > 1000 nM
EC50 (Y4 receptor; [5]): 1 nM
half-life (in vivo; 7 nmol/kg): 29 h

CC[C@H](C)[C@H](NC(=O)[C@H](Cc1ccc(O)cc1)NC(=O)[C@H](CCCNC(=N)N)NC(=O)[C@H](CCCNC(=N)N)NC(=O)[C@H](CC(C)C)NC(=O)[C@H](CC(=O)O)NC(=O)[C@H](C)NC(=O)[C@H](C)NC(=O)[C@H](Cc1ccc(O)cc1)NC(=O)[C@H](CCC(N)=O)NC(=O)[C@H](C)NC(=O)[C@H](CC(C)C)NC(=O)[C@H](CCC(N)=O)NC(=O)[C@H](CCC(=O)O)NC(=O)[C@@H]1CCCN1C(=O)[C@@H](NC(=O)[C@H](C)NC(=O)[C@H](CC(N)=O)NC(=O)[C@H](CC(=O)O)NC(=O)CNC(=O)[C@@H]1CCCN1C(=O)[C@H](Cc1ccc(O)cc1)NC(=O)[C@@H](NC(=O)[C@@H]1CCCN1C(=O)[C@H](CCC(=O)O)NC(=O)[C@H](CC(C)C)NC(=O)[C@@H]1CCCN1C(=O)COCCOCCNC(=O)COCCOCCNC(=O)CC[C@H](NC(=O)[C@H]1CC[C@H](CNC(=O)CCCCCCCCCCCCCCCCCCC(=O)O)CC1)C(=O)O)C(C)C)[C@@H](C)O)C(=O)N[C@@H](CC(N)=O)C(=O)N[C@@H](CC(C)C)C(=O)N[C@@H](CC(C)C)C(=O)N[C@H](C(=O)N[C@@H](CCCNC(=N)N)C(=O)N1CCC[C@H]1C(=O)N[C@@H](CCCNC(=N)N)C(=O)N[C@@H](Cc1ccc(O)cc1)C(N)=O)[C@@H](C)O [SEQ ID NO: 56, N-alfa-[2-(2-{2-[2-(2-{2-[(S)-4-Carboxy-4-({trans-4-[(19-carboxynonadecanoylamino)methyl]cyclohexanecarbonyl}amino)butyrylamino]-ethoxy}ethoxy)acetylamino]ethoxy}ethoxy)acetyl][Leu17,Leu30]hPP2-36] ({C20 diacid-Trx-γGlu-AEEA-AEEA}-PLEPVYPGDNATPEQLAQYAADLRRYINLLTRPRY-NH2; C-terminus assumed)
EC50 (Y2 receptor [2]): > 1000 nM
EC50 (Y4 receptor): 4 nM
half-life (in vivo; in vivo, 6 nmol/kg): 22 h

{C20 diacid-Trx-γGlu-AEEA-AEEA}-NRYYASLRHYLNLVTRQRY (ends and bridges not checked)
Y2 cAMP EC50 (Y2 receptor [3]): 97 nM
